This is an account of results in PMC5784128, “Glucansucrase (mutant) enzymes from Lactobacillus reuteri 180 efficiently transglucosylate Stevia component rebaudioside A, resulting in a superior taste” (Scientific Reports, 2018).

The assay has as its target T1, Gtf180-ΔN (Limosilactobacillus reuteri, UniProt Q5SBN3, Q1140E).
T1 construct: N-terminally truncated fragment (first 741 residues removed), 117 kDa; start 742 derived from the printed truncation
Put plainly: HPLC time course of transglucosylation. The assay is classed as biochemical. Conditions: acceptor substrate; 84 mM RebA, 282 mM sucrose donor, 5 U/mL enzyme, 1 mM CaCl2, pH 4.7, 37 °C.

T1 sequence (Q5SBN3 entry or part of it Q1140E): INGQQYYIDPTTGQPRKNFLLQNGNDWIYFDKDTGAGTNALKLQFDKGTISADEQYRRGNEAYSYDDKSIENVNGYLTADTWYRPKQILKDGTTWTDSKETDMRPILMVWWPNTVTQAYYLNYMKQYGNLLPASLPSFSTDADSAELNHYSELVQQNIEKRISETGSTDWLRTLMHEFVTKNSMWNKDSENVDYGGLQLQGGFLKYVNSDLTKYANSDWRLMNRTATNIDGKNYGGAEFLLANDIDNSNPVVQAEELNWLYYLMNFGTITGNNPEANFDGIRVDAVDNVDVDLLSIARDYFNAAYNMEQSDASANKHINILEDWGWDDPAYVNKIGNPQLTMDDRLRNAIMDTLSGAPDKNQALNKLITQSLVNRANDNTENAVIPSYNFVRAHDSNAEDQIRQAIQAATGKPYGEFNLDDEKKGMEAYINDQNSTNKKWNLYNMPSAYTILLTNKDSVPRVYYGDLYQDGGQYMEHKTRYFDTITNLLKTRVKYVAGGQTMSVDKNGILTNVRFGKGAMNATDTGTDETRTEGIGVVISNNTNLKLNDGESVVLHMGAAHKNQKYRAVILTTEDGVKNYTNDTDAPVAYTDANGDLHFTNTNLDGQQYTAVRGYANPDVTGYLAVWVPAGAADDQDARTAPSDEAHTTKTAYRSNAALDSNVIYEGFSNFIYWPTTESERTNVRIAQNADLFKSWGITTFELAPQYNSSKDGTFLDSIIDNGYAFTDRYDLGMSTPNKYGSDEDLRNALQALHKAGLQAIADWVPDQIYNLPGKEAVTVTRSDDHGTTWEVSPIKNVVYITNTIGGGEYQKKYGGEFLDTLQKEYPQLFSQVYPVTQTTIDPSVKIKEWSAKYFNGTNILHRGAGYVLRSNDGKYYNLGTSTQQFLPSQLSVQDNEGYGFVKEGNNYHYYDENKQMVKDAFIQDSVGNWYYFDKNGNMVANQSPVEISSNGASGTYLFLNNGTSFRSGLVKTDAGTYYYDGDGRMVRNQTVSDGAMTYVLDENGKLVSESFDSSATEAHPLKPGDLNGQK

Consider `C=C1C[C@@]23CC[C@H]4[C@@](C)(CCC[C@@]4(C)C(=O)O[C@@H]4O[C@H](CO)[C@@H](O)[C@H](O)[C@H]4O)[C@@H]2CC[C@]1(O[C@@H]1O[C@H](CO)[C@@H](O)[C@H](O[C@@H]2O[C@H](CO)[C@@H](O)[C@H](O)[C@H]2O)[C@H]1O[C@@H]1O[C@H](CO)[C@@H](O)[C@H](O)[C@H]1O)C3` [rebaudioside A], for which the “HPLC time course of transglucosylation” value is listed as “the Q1140E-mutant not only converted more RebA into RebA-G than wild-type Gtf180-ΔN”.
